Results as given in ChEMBL document CHEMBL6134920, “Novel Heterocyclic Pyrimidine Derivatives as GSK3α Inhibitors” (ACS Med Chem Lett, 2025).

Test: Inhibition of Nanoluc-GSK2alpha (unknown origin) expressed in HEK293 cells measured after overnight incubation by NanoBRET- cellular assay
Conditions: Homo sapiens

Compound | IC50
CCNCc1cncc(NC(=O)c2c(N)ncn(-c3c(Cl)cc(OCC)cc3Cl)c2=O)c1 | 4.8 nM
CNC(COC)c1cncc(NC(=O)c2c(N)ncn(-c3c(Cl)cc(COC)cc3Cl)c2=O)c1 (stereo unspecified) | 1.9 nM
Nc1ncn(-c2c(Cl)cc(C(F)CF)cc2Cl)c(=O)c1C(=O)Nc1cncc([C@H]2CCCCN2)c1 (stereo partly specified) | 2 nM

Continued by falling IC50, values first:

IC50 | Compound
2.8 nM | COCC(N)c1cncc(NC(=O)c2c(N)ncn(-c3c(Cl)cc(C(F)F)cc3Cl)c2=O)c1 (stereo unspecified)
2.4 nM | COCC(N)c1cncc(NC(=O)c2c(N)ncn(-c3c(Cl)cc(OC4CC4)cc3Cl)c2=O)c1 (stereo unspecified)
2.4 nM | COCc1cc(Cl)c(-n2cnc(N)c(C(=O)Nc3cncc(C(N)COC)c3)c2=O)c(Cl)c1 (stereo unspecified)
